The experiment relates to hexokinase (from baker's yeast purchased from Sigma). Kind of experiment: pyruvate kinase/lactate dehydrogenase coupled assay, NADH oxidation. In kind it is biochemical. The settings on record: read-out: Km(glucose); positive control; ATP co-substrate.

A word on the Km: it is the concentration of substrate that gives half-maximal velocity.

Regarding `OC[C@H]1OC(O)[C@H](O)[C@@H](O)[C@@H]1O` (stereo partly shown) [glucose], the Km is about 300 µM.

The values above are taken from paper PMC3942886 (Molecular and cellular biochemistry, 2013).
